{"source": "patent US20240366577A1", "about": "“CONTROLLED LONG-TERM DRUG DELIVERY AND METHODS THEREOF” (THE JOHNS HOPKINS UNIVERSITY, priority 2021, published 2024)", "key": {"[1]": {"system": "4T1-luciferase tumors", "assay": "4T1-luciferase tumor IVIS bioluminescence, co-injection with crystals", "type": "in vivo, BALB/c mice", "details": "2 mg of 150-200 μm crystals co-injected with 4T1-luciferase cells; up to 20 days; vs PBS controls; p<0.05", "description": "To determine long-term potential of tunable, slow-releasing crystal-formulated sorafenib, efficacy of a single injection of the injectable drug composition was measured in a syngeneic model of triple negative breast cancer (TNBC): 4T1 tumors grown orthotopically in the mammary fat pad of BALB/c mice. For in vivo testing, mice were anesthetized with inhaled isofluorane and inoculated with 4T1, also referred to as 4T1-Luciferase, Luc, cancer cells, injected into the right inguinal mammary fat pad, as shown in FIG. 3A. […] Tumor presence was quantified over time up to 20 days post injection in both cases based on measured luminescence in equivalent regions of interest (ROIs, white circles), depicted in FIG. 3C. […]\n4T1 or 4T1-luc2 cells were trypsinized using 0.25% Trypsin-EDTA, then diluted with the appropriate complete culture media and spun in a centrifuge at 300 g for 5 min. […] Cells were counted with a Countess automated cell counter. […] Tumors were measured externally using a digital caliper, and volume was calculated (!″* (length * height) *−length * height). […]\n4T1-Luc2 tumor-injected mice were dosed with RediJect D-Luciferin K+ salt 5 minutes prior to examination. […] Equivalent regions of interest (ROIs) were used for quantification of tumor groups."}, "[2]": {"assay": "in vitro release under accelerated release conditions", "type": "physicochemical", "details": "37° C., PBS+0.3% SDS, 2.9 mg drug, 12-day time course; amorphous vs 50 μm vs 150-200 μm crystals", "description": "After crystals visibly stopped precipitating or growing, the vessel was submerged in an ultrasonic water bath for 10-30 seconds to dislodge crystals from the vessel sidewall and break them into more a uniform size distributions, either smaller fines, for example 50 μm, or between 150-200 μm, as measured by brightfield and scanning electron microscopy, shown in FIGS. 2A-2B. Resultant product was then removed from the supernatant mother solution, dried, weighed, and stored for later use. On average, yielded crystal was approximately 40% of the starting powder. Furthermore, methods exist to quantify solubilized material, typically using optics to identify changes in light transmittance, and enabled testing of crystal stability in a range of aqueous solutions. […] To simulate cumulative drug release over time, all 3 mL supernatant volumes were removed and replaced with completely fresh release media at desired times of 1 hr, 4 hr, 6 hr, 8 hr, 10 hr, 1 day, 2 days, 5 days, 7 days, 10 days and 12 days, and 200 μL aliquots were measured in individual wells of a 96-well plate at 266 nm to determine solubilize sorafenib release, as shown in FIG. 2D.\nRelease studies were carried out under accelerated conditions in PBS with 0.3% w/v SDS in 1X PBS. […] Drug concentration in samples was measured using a UV-calibrated Tecan infinite M200 PRO. […]"}}}
{"compound": "CNC(=O)c1cc(Oc2ccc(NC(=O)Nc3ccc(Cl)c(C(F)(F)F)c3)cc2)ccn1", "note": "[crystalline sorafenib, sorafenib]", "values": [{"measurement": "anti-tumor efficacy (tumor luminescence in ROIs)", "setting": "[1]", "result": "significant anti-tumor efficacy"}, {"measurement": "release of solubilized sorafenib (cumulative)", "setting": "[2]", "result": "tuned by varying crystal"}]}
